Patent publication US20110201558A1, “Anaplerotic Therapy for Alzheimer's Disease and the Aging Brain” (Baylor Research Institute, priority 2009, published 2011)

Legend:
mouse brain = conditions: infusion of propionyl-CoA precursors; compared with heptanoate, BKP, or propionate; cited from earlier work
[1] = design: species or system human; conditions: in vivo
Text: For example, when using C7 as the source of odd-chain fatty acids these can be provided in the form of a triglyceride, e.g., tri-heptanoin. The triglyceride triheptanoin is provided in a concentration sufficient to provide a beneficial effect is most useful in this aspect of the present invention. The seven-carbon fatty acid may be provided, e.g.:
Goals have been set using 4 g/kg (within ideal body weight (IBW) range) for infants, children, and some adolescents. Goals have been set using 2 g/kg (within IBW range) for adolescents. Goals have been set using 2 g/kg (within IBW range) for adults; but toleration is 1-1.2 g per kg (which is 35% kcal of estimated needs).

[2] = tested on: patients with inherited disorders of fat and glycogen metabolism as well as pyruvate carboxylase deficiency; conditions: cited from earlier work

Row | Structure (SMILES) | anaplerosis (stimulation of the CAC and energy production) in mouse brain (mouse brain) | toleration [1] | indirect measures of energy metabolism in the brain and peripheral organs such as muscle and heart [2]
1 | CCCCC(=O)O [pentanoate] | superior |  | 
2 | CCCCCCC(=O)OCC(COC(=O)CCCCCC)OC(=O)CCCCCC [triheptanoin] |  | 1-1.2 g per kg | positive effects
